This passage reports MIC, melting point and IC50 results from US9340493B2, “Hydroxamic acid derivatives useful as antibacterial agents” (Pfizer Inc., priority 2008, dated 2016).

The melting point is the temperature, or range, at which the solid turns liquid. For orientation: IC50 means the concentration that inhibits the measured activity by half. A high value points to weaker potency.

Data set [1] has as its system Acinetobacter baumanii/haemolyticus. Kind of data set: MIC determination, A. baumanii/haemolyticus. It is filed as cell-based. Conditions: Acinetobacter baumannii; multidrug-resistant clinical isolate; * = arithmetic mean of 2-6 MIC determinations; read-out: MIC (ug/mL) A. baumanii/haemolyticus. The gist of the method:
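MICs were determined by CLSI broth dilution (M7-A7, M100-S18) against a multidrug-resistant clinical isolate of Acinetobacter baumanii/haemolyticus.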

In data set [2] the test system is Staphylococcus aureus ATCC 29213. Kind of data set: MIC determination, S. aureus ATCC 29213. It is filed as cell-based. Conditions: ATCC29213, CLSI quality control reference strain, * = arithmetic mean of 2-6 MIC determinations, read-out: MIC (ug/mL) S. aureus ATCC 29213. The gist of the method: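 MIC was measured by dilution susceptibility testing following CLSI guidelines (M7-A7; M100-S18). The test organism is the CLSI quality-control reference strain.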

The next data set relates to Escherichia coli EC-1. Kind of data set: MIC determination, E. coli EC-1. It is filed as cell-based. Conditions: EC1, EC-1: VOGEL, * = arithmetic mean of 2-6 MIC determinations, read-out: MIC (ug/mL) E. coli EC-1. Put shortly:
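Minimum inhibitory concentration against Escherichia coli EC-1 was determined in vitro by dilution susceptibility testing under CLSI M7-A7 and M100-S18 guidelines.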

The next data set relates to P. aeruginosa PAO280. Kind of data set: MIC determination, P. aeruginosa PAO280. It is filed as cell-based. Conditions: Pseudomonas aeruginosa, PAO280, read-out: MIC (ug/mL) P. aeruginosa PAO280. Put shortly: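 Broth dilution MIC per CLSI M7-A7/M100-S18 guidelines. Strain PAO280 lacks efflux pumps MexAB-oprM, MexXY and MexZ.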
For a further data set, the system named is Enterobacter aerogenes. Kind of data set: MIC determination, E. aerogenes. It is filed as cell-based. The settings on record: Klebsiella aerogenes; quinolone-resistant, ESBL-expressing clinical isolate; * = arithmetic mean of 2-6 MIC determinations; read-out: MIC (ug/mL) E. aerogenes. The gist of the method: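 Clinical E. aerogenes isolate, quinolone-resistant and ESBL-expressing. MIC measured in vitro by dilution testing according to CLSI guidelines (M7-A7, M100-S18).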

Another data set has as its system P. aeruginosa UI-18. Kind of data set: MIC determination, P. aeruginosa UI-18. The settings on record: Pseudomonas aeruginosa, UI18; wild-type; * = arithmetic mean of 2-6 MIC determinations; read-out: MIC (ug/mL) P. aeruginosa UI-18. It is filed as cell-based. Put shortly: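 MIC by broth dilution following CLSI M7-A7 and M100-S18 guidelines, tested against wild-type P. aeruginosa UI-18.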

For the next data set, the system named is Serratia marcescens. Kind of data set: MIC determination, S. marcescens. The settings on record: multidrug-resistant clinical isolate, * = arithmetic mean of 2-6 MIC determinations, read-out: MIC (ug/mL) S. marcescens. It is filed as cell-based. As for the experimental part: MIC determinations: The in vitro antibacterial activity of compounds described in the Examples was evaluated by minimum inhibitory concentration (MIC) testing according to Clinical and Laboratory Standards Institute (CLSI, formerly NCCLS) guidelines. See: Clinical and Laboratory Standards Institute. Methods for Dilution Antimicrobial Susceptibility Tests for Bacteria that Grow Aerobically; Approved Standard-Seventh Edition. CLSI document M7-A7 [ISBN 1-56238-587-9]. Clinical and Laboratory Standards Institute, 940 West Valley Road, Suite 1400, Wayne, Pa. 19087-1898 USA, 2006; also Clinical and Laboratory Standards Institute. Performance Standards for Antimicrobial Susceptibility Testing; Eighteenth Informational Supplement. CLSI document M100-S18 [ISBN1-56238-653-0]. Clinical and Laboratory Standards Institute.
The following bacterial strains were used:
Serratia marcescens: Multidrug-resistant clinical isolate.

The next data set concerns Klebsiella pneumoniae. Kind of data set: MIC determination, K. pneumoniae. It is filed as cell-based. Conditions: ciprofloxacin-resistant, ESBL-expressing clinical isolate, * = arithmetic mean of 2-6 MIC determinations, read-out: MIC (ug/mL) K. pneumoniae. Put shortly: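 MIC determined by broth dilution per CLSI M7-A7 and M100-S18 guidelines. Strain: ciprofloxacin-resistant, ESBL-expressing clinical isolate of K. pneumoniae.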

The target in data set [3] is T1, Pseudomonas aeruginosa LpxC enzyme (Pseudomonas aeruginosa, UniProt P47205).
T1 construct: made in house; host or cells: E. coli
T1 sequence (P47205 1-303): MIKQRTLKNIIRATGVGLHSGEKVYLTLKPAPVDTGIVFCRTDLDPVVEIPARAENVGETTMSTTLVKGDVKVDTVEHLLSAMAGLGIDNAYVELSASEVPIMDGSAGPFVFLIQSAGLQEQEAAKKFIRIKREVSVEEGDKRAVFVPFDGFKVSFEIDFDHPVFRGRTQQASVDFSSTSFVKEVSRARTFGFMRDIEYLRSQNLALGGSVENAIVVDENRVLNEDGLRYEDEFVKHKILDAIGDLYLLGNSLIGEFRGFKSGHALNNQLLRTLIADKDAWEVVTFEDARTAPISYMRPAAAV
Kind of data set: IC50 assay, LpxC enzyme from P. aeruginosa. It is filed as biochemical. Conditions: 0.5 nM enzyme, 25° C., pH 8.0, 20 min; ** = average of 2-8 assays. Put shortly: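 P. aeruginosa LpxC (0.5 nM, expressed in E. coli) reacted with 0.5 uM ³H-acetyl-labelled UDP-3-O-(R-3-hydroxydecanoyl)-GlcNAc in 50 mM sodium phosphate pH 8.0 with 1 mg/ml BSA at 25 °C for 20 min. Charcoal stopped the reaction, and filtrate radioactivity was counted by scintillation after no-enzyme background subtraction.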

Values after ≈ are worked out from the molar mass of the structure shown.

For `CC(OCc1ccc(-c2ccccc2)cc1)C(=O)NO` (stereo not shown) [Example 54, 2-(biphenyl-4-ylmethoxy)-N-hydroxypropanamide], the melting point was in the range of 120 to 123 °C. Also, in data set [1], the MIC was more than 64 µg/mL. In addition, the MIC in data set [2] is more than 64 µg/mL. Further, the MIC with Escherichia coli EC-1 was more than 64 µg/mL. Moreover, in the data set with P. aeruginosa PAO280, the MIC came out at 32 µg/mL (≈ 118 µM). Further, the MIC in the data set on Enterobacter aerogenes was more than 64 µg/mL. Moreover, the MIC with P. aeruginosa UI-18 was more than 64 µg/mL. For the same compound, the MIC in the data set on Serratia marcescens was more than 64 µg/mL. Also, in the data set with Klebsiella pneumoniae, the MIC is more than 64 µg/mL. The same compound came in with an IC50 in data set [3] of 0.406 µM.

Regarding `C[C@@](OCc1ccc(-c2ccccc2)cc1)(C(=O)NO)[C@@H](O)c1cccnc1` [Example 12, (2S,3S)-2-(biphenyl-4-ylmethoxy)-N,3-dihydroxy-2-methyl-3-pyridin-3-ylpropanamide], the MIC in [1] is more than 64 µg/mL; in data set [2], 32 µg/mL (≈ 84.6 µM); in the data set on Escherichia coli EC-1, more than 64 µg/mL; in the data set with P. aeruginosa PAO280 it was 0.5 µg/mL (≈ 1.32 µM); in the data set with Enterobacter aerogenes, more than 64 µg/mL; with P. aeruginosa UI-18, 32 µg/mL (≈ 84.6 µM). The MIC in the data set on Serratia marcescens and in the data set with Klebsiella pneumoniae was more than 64 µg/mL each time. Besides, the half-inhibitory concentration (IC50) in [3] is 0.00181 µM.

`C[C@@](OCc1ccc(-c2ccccc2)cc1)(C(=O)NO)[C@@H](O)CC(F)(F)F` [Example 7, (2S,3S)-2-(biphenyl-4-ylmethoxy)-N,3-dihydroxy-2-methyl-5,5,5-trifluoropentanamide]: the MIC in data set [1] was more than 64 µg/mL; in data set [2], 64 µg/mL (≈ 167 µM); in the data set on Escherichia coli EC-1, more than 64 µg/mL; in the data set on P. aeruginosa PAO280 it was 2 µg/mL (≈ 5.22 µM); in the data set with Enterobacter aerogenes, more than 64 µg/mL; in the data set on P. aeruginosa UI-18 it was more than 64 µg/mL. Moreover, the MIC with Serratia marcescens and in the data set on Klebsiella pneumoniae was more than 64 µg/mL in each case. Half-maximal inhibition in [3] (IC50) was put at 0.00953 µM.

With `Cn1ccnc1[C@H](O)[C@](C)(OCc1ccc(-c2ccccc2)cc1)C(=O)NO` [Example 10, (2S,3S)-2-(biphenyl-4-ylmethoxy)-N,3-dihydroxy-2-methyl-3-(1-methyl-1H-imidazol-2-yl)propanamide], the MIC was 64 µg/mL (≈ 168 µM) in data set [1]; 48 µg/mL (≈ 126 µM) in [2]; 48 µg/mL (≈ 126 µM) in the data set with Escherichia coli EC-1; 0.19 µg/mL (≈ 0.498 µM) in the data set on P. aeruginosa PAO280; more than 64 µg/mL in the data set on Enterobacter aerogenes; 33 µg/mL (≈ 86.5 µM) in the data set on P. aeruginosa UI-18. The MIC with Serratia marcescens is 64 µg/mL (≈ 168 µM); with Klebsiella pneumoniae, 48 µg/mL (≈ 126 µM). The same compound displayed an IC50 in [3] of 0.00246 µM.

As to `O=C(NO)C(CO)(CO)OCc1ccc(-c2ccccc2)cc1` [Example 91, 2-(biphenyl-4-ylmethoxy)-N,3-dihydroxy-2-(hydroxymethyl)propanamide], the MIC was more than 64 µg/mL in [1]; more than 64 µg/mL in data set [2]; more than 64 µg/mL in the data set with Escherichia coli EC-1; 1.25 µg/mL (≈ 3.94 µM) in the data set on P. aeruginosa PAO280; more than 64 µg/mL with Enterobacter aerogenes; 43 µg/mL (≈ 136 µM) in the data set with P. aeruginosa UI-18. Further, the MIC in the data set with Serratia marcescens and in the data set with Klebsiella pneumoniae was more than 64 µg/mL in each case. Also, the half-maximal inhibitory concentration (IC50) in data set [3] was 0.0108 µM.

As to `CCOCC[C@H](O)[C@](C)(OCc1ccc(-c2ccccc2)cc1)C(=O)NO` [Example 8, (2S,3S)-2-(biphenyl-4-ylmethoxy)-5-ethoxy-N,3-dihydroxy-2-methylpentanamide], the MIC is more than 64 µg/mL in [1]; more than 64 µg/mL in [2]; more than 64 µg/mL in the data set on Escherichia coli EC-1; 8 µg/mL (≈ 21.4 µM) with P. aeruginosa PAO280; more than 64 µg/mL in the data set with Enterobacter aerogenes; more than 64 µg/mL in the data set on P. aeruginosa UI-18. Also, the MIC with Serratia marcescens and with Klebsiella pneumoniae was more than 64 µg/mL each time. Also, it took 0.0284 µM to reach half-maximal inhibition in data set [3] (IC50).

Consider `C[C@@](OCc1ccc(-c2ccccc2)cc1)(C(=O)NO)[C@@H](O)c1ccccc1` [Example 11, (2S,3S)-2-(biphenyl-4-ylmethoxy)-N,3-dihydroxy-2-methyl-3-phenylpropanamide], for which the MIC in data set [1] was more than 64 µg/mL; in data set [2] it was 32 µg/mL (≈ 84.8 µM); in the data set with Escherichia coli EC-1, more than 64 µg/mL; with P. aeruginosa PAO280, 8 µg/mL (≈ 21.2 µM); in the data set on Enterobacter aerogenes it was more than 64 µg/mL; in the data set on P. aeruginosa UI-18, more than 64 µg/mL. Also, the MIC with Serratia marcescens and in the data set on Klebsiella pneumoniae was more than 64 µg/mL throughout. For the same compound, the midpoint of inhibition in [3], the IC50, lay at 0.00509 µM.

`COCC(CO)(OCc1ccc(-c2ccccc2)cc1)C(=O)NO` (stereo not shown) [Example 56, 2-(biphenyl-4-ylmethoxy)-N,3-dihydroxy-2-(methoxymethyl)propanamide]: the MIC in data set [1] is more than 64 µg/mL; in data set [2], more than 64 µg/mL; in the data set with Escherichia coli EC-1, more than 64 µg/mL; in the data set with P. aeruginosa PAO280, 4 µg/mL (≈ 12.1 µM); in the data set on Enterobacter aerogenes, more than 64 µg/mL; in the data set with P. aeruginosa UI-18, more than 64 µg/mL. The MIC in the data set on Serratia marcescens and in the data set on Klebsiella pneumoniae was more than 64 µg/mL each time. For the same compound, half-maximal inhibition in [3] (IC50) was put at 0.0222 µM.
